ChEMBL document CHEMBL1143687, “Synthesis of analogues of a flexible thiopyrylium photosensitizer for purging blood-borne pathogens and binding mode and affinity studies of their complexes with DNA” (Bioorg Med Chem, 2007)

Legend:
[1] = Partition coefficient, log P by shake flask method; format: physicochemical; settings: octanol/water
[2] = Binding affinity to M13mp19 DNA by spectrophotometric titration method
[3] = tested on: DNA; assay: Binding affinity to calf thymus DNA by spectrophotometric titration method; format: nucleic-acid assay; settings: Bos taurus
[4] = tested on: DNA; assay: Binding affinity to calf thymus DNA by isothermal titration calorimetry; format: nucleic-acid assay; settings: Bos taurus
[5] = tested on: Escherichia coli; assay: Binding affinity to pUC19 DNA assessed as drug concentration to induce plasmid re-supercoiling by topoisomerase 1 DNA unwinding assay

SMILES | logP [1] | Kb [2] | Kb [3] | Kb [4] | Kb [5]
CCc1cc(-c2ccc(N(C)C)cc2)cc(-c2ccc(N(C)C)cc2)[s+]1 | 0.13 | 1.8 10^4/M | – | – | –
CCCCc1cc(-c2ccc(N(C)C)cc2)cc(-c2ccc(N(C)C)cc2)[s+]1 | 1.63 | 7.58 10^4/M | – | – | –
CCCc1cc(-c2ccc(N(C)C)cc2)cc(-c2ccc(N(C)C)cc2)[s+]1 | 0.82 | 3.47 10^4/M | 5 10^4/M | 2.4 10^5/M | 45 10^6/M
CC(C)c1cc(-c2ccc(N(C)C)cc2)cc(-c2ccc(N(C)C)cc2)[s+]1 | 0.23 | 1.17 10^4/M | – | – | –

Continued, values first:

logP [1] | Kb [2] | Kb [3] | Kb [4] | Kb [5] | SMILES
1.57 | 2.5 10^4/M | 8.7 10^4/M | 3.9 10^5/M | 22 10^6/M | CN(C)c1ccc(-c2cc(-c3ccc(N(C)C)cc3)[se+]c(C(C)(C)C)c2)cc1
0.6 | 6.1 10^4/M | 5.2 10^4/M | 1.7 10^5/M | 66 10^6/M | Cc1cc(-c2ccc(N(C)C)cc2)cc(-c2ccc(N(C)C)cc2)[s+]1
1.51 | 0.91 10^4/M | 10.1 10^4/M | 4.2 10^5/M | 23 10^6/M | CN(C)c1ccc(-c2cc(-c3ccc(N(C)C)cc3)[s+]c(C(C)(C)C)c2)cc1
